≈ marks a conversion by molar mass, not a printed value. Where “and” joins values, the source holds several entries; their conditions need not be identical. Identical values can stand only once. One block for each molecule: values may come before it.
Columns and labels:
Assay in all cases: ≥ marks a high value that may be exact or a test limit, other limits are often not marked, values filed in µg/mL are converted to µM
Edwardsiella tarda = system: Edwardsiella tarda
Bacillus subtilis = system: Bacillus subtilis
Pseudomonas aeruginosa = system: Pseudomonas aeruginosa
Aeromonas hydrophila = system: Aeromonas hydrophila
Escherichia coli = system: Escherichia coli
Candida albicans = system: Candida albicans
Staphylococcus aureus = system: Staphylococcus aureus
Bacillus megaterium Bm11 = system: Bacillus megaterium Bm11
Serratia marcescens = system: Serratia marcescens
[1] = system: Pseudomonas aeruginosa ATCC 27853
[2] = system: Staphylococcus epidermidis KCTC 1917
Escherichia coli D21 = system: Escherichia coli D21
Escherichia coli ML-35 = system: Escherichia coli ML-35
[3] = system: Escherichia coli KCTC 1682
[4] = system: Staphylococcus aureus KCTC 1621
[5] = system: Staphylococcus epidermidis ATCC 35984
Streptococcus agalactiae = system: Streptococcus agalactiae
[6] = system: Pseudomonas aeruginosa KCTC 1637
[7] = system: Staphylococcus epidermidis ATCC 12228
[8] = system: Bacillus subtilis KCTC 3068
[9] = system: Escherichia coli O18:K1:H7 Bort
Enterococcus faecium = system: Enterococcus faecium
[10] = system: Salmonella typhimurium KCTC 1926
Cryptococcus neoformans = system: Cryptococcus neoformans
[11] = system: Staphylococcus aureus ATCC 25923
[12] = system: Serratia marcescens ATCC 8100
[13] = system: Staphylococcus aureus Cowan 1
[14] = system: Escherichia coli ATCC 25922
[15] = system: Salmonella enterica subsp. enterica serovar Typhimurium ATCC 14028
Escherichia coli IP76-24 = system: Escherichia coli IP76-24
[16] = system: Aspergillus fumigatus IP1025-70
[17] = system: Saccharomyces cerevisiae IP118079
[18] = system: Nocardia brasiliensis IP16-80
[19] = system: Enterococcus faecalis IP103214
[20] = system: Trichophyton simii IP1063-74
[21] = system: Aspergillus niger IP218-53
[22] = system: Staphylococcus aureus IP76-25
[23] = system: Candida albicans IP884-65
[24] = system: Cryptococcus neoformans IP960-67
[25] = system: Aeromonas caviae IP67-16T
[26] = system: Acinetobacter baumannii ATCC 19606
Candida albicans CA14 = system: Candida albicans CA14
[27] = system: Klebsiella pneumoniae ATCC 700603
Escherichia coli 780 = system: Escherichia coli 780
Acinetobacter baumannii = system: Acinetobacter baumannii
[28] = system: Pseudomonas aeruginosa 2760
[29] = system: Enterococcus faecalis ATCC 29212
[30] = system: Staphylococcus aureus 936
[31] = system: Staphylococcus aureus 725
[32] = system: Bacillus subtilis ATCC 23857
[33] = system: Saccharomyces cerevisiae BY4741
[34] = system: Staphylococcus aureus RN4220
Escherichia coli 850 = system: Escherichia coli 850
Escherichia coli K-12 = system: Escherichia coli K-12
Bacillus subtilis 168 = system: Bacillus subtilis 168
Escherichia coli W160-37 = system: Escherichia coli W160-37

SMILES: CC(C)C[C@H](NC(=O)[C@H](CCCCN)NC(=O)[C@H](CCCCN)NC(=O)[C@H](Cc1ccccc1)NC(=O)[C@H](CC(C)C)NC(=O)[C@H](CCCCN)NC(=O)[C@H](CCCCN)NC(=O)[C@H](Cc1ccccc1)NC(=O)[C@H](CCCCN)NC(=O)[C@H](CCCCN)NC(=O)[C@H](CCCN=C(N)N)NC(=O)[C@H](Cc1ccccc1)NC(=O)[C@H](CCCN=C(N)N)NC(=O)[C@H](CCCCN)NC(=O)[C@H](Cc1ccccc1)NC(=O)[C@H](CCCN=C(N)N)NC(=O)CN)C(=O)N[C@@H](CO)C(N)=O [GRFKRFRKKFKKLFKKLS]
MIC (Bacillus megaterium Bm11): 2 µM (≈ 4.68 µg/mL)
MIC (Serratia marcescens): 4 µM (≈ 9.37 µg/mL)
MIC [1]: 2 µM (≈ 4.68 µg/mL)
MIC [2]: 4 µM (≈ 9.37 µg/mL)
MIC (Escherichia coli D21): 4 µM (≈ 9.37 µg/mL)
MIC (Escherichia coli ML-35): 4 µM (≈ 9.37 µg/mL)
MIC [3]: 4 µM and 2.83 µM
MIC [4]: 4 µM and 2.83 µM
MIC [5]: 2 µM (≈ 4.68 µg/mL)
MIC (Streptococcus agalactiae): 1 µM (≈ 2.34 µg/mL)
MIC [6]: 4 µM (≈ 9.37 µg/mL)
MIC [7]: 1 µM (≈ 2.34 µg/mL)
MIC [8]: 4 µM (≈ 9.37 µg/mL)
MIC [9]: 8 µM (≈ 18.7 µg/mL)
MIC (Enterococcus faecium): 8 µM (≈ 18.7 µg/mL)
MIC (Candida albicans): 16 µM (≈ 37.5 µg/mL)
MIC [10]: 2 µM (≈ 4.68 µg/mL)
MIC (Cryptococcus neoformans): 4 µM (≈ 9.37 µg/mL)
MIC (Staphylococcus aureus): 4 µM (≈ 9.37 µg/mL)
MIC [11]: 2 µM and 4 µM
MIC [12]: 2 µM (≈ 4.68 µg/mL)
MIC [13]: 2 µM (≈ 4.68 µg/mL)
MIC [14]: 2 µM (≈ 4.68 µg/mL)
MIC [15]: 4 µM (≈ 9.37 µg/mL)

SMILES: CC[C@H](C)[C@H](NC(=O)CNC(=O)[C@H](CCCCN)NC(=O)[C@H](CC(C)C)NC(=O)[C@H](CCSC)NC(=O)[C@H](CC(N)=O)NC(=O)[C@H](CCCCN)NC(=O)[C@H](Cc1c[nH]c2ccccc12)NC(=O)[C@H](CC(C)C)NC(=O)[C@H](C)N)C(N)=O [ALWKNMLKGI]
MIC (Escherichia coli IP76-24): 14 µM (≈ 16.4 µg/mL)
MIC [16]: ≥ 150 µM
MIC [17]: ≥ 50 µM
MIC [18]: ≥ 150 µM
MIC [19]: 7 µM (≈ 8.21 µg/mL)
MIC [20]: ≥ 150 µM
MIC [21]: ≥ 150 µM
MIC [22]: ≥ 150 µM
MIC [23]: ≥ 150 µM
MIC [24]: 25 µM (≈ 29.3 µg/mL)
MIC [25]: 7 µM (≈ 8.21 µg/mL)

SMILES: CC[C@H](C)[C@H](NC(=O)[C@H](CC(N)=O)NC(=O)[C@@H](NC(=O)[C@@H](NC(=O)[C@H](CCCCN)NC(=O)[C@H](CCC(N)=O)NC(=O)[C@H](CCC(N)=O)NC(=O)[C@H](C)NC(=O)[C@H](CCC(=O)O)NC(=O)[C@H](CCC(=O)O)NC(=O)[C@@H](NC(=O)[C@H](CC(=O)O)NC(=O)[C@H](CCCCN)NC(=O)[C@H](CC(C)C)NC(C)=O)C(C)C)[C@@H](C)CC)[C@@H](C)CC)C(=O)N[C@H](C(=O)N[C@@H](CCCN=C(N)N)C(=O)N[C@@H](CCCN=C(N)N)C(=O)N[C@@H](CC(C)C)C(N)=O)[C@@H](C)CC [LKDVEEAQQKIINIIRRL]
MIC (Escherichia coli W160-37): 22 µM (≈ 48.9 µg/mL)

Second part, the molecule after the results:

MIC (Edwardsiella tarda): ≥ 160 µM
MIC (Bacillus subtilis): 3 µM (≈ 7.58 µg/mL)
MIC (Pseudomonas aeruginosa): 35 µM (≈ 88.4 µg/mL)
MIC (Aeromonas hydrophila): ≥ 160 µM
MIC (Escherichia coli): 6.7 µM (≈ 16.9 µg/mL)
MIC (Candida albicans): 20 µM (≈ 50.5 µg/mL)
MIC (Staphylococcus aureus): 5 µM (≈ 12.6 µg/mL)
SMILES: CC[C@H](C)[C@H](NC(=O)[C@H](CC(C)C)NC(=O)CNC(=O)[C@H](Cc1cnc[nH]1)NC(=O)[C@@H](NC(=O)[C@H](Cc1cnc[nH]1)NC(=O)[C@H](CCCCN)NC(=O)CNC(=O)[C@@H](NC(=O)[C@H](CO)NC(=O)[C@H](Cc1ccccc1)NC(=O)[C@H](CC(C)C)NC(=O)CNC(=O)CNC(=O)[C@@H](NC(=O)[C@@H](NC(=O)[C@H](Cc1cnc[nH]1)NC(=O)[C@H](Cc1cnc[nH]1)NC(=O)[C@@H](NC(=O)[C@@H](N)Cc1ccccc1)[C@@H](C)CC)[C@@H](C)CC)[C@@H](C)CC)C(C)C)[C@@H](C)CC)C(=O)N[C@@H](Cc1cnc[nH]1)C(=O)NCC(=O)N[C@@H](Cc1cnc[nH]1)C(=O)O [FIHHIIGGLFSVGKHIHGLIHGH]

MIC [1]: 14.7 µM (≈ 32 µg/mL)
MIC [26]: 3.67 µM (≈ 8 µg/mL)
MIC (Candida albicans CA14): 4 µM (≈ 8.73 µg/mL)
MIC [27]: 14.7 µM (≈ 32 µg/mL)
MIC (Escherichia coli 780): 7.33 µM (≈ 16 µg/mL)
MIC (Acinetobacter baumannii): 3.67 µM (≈ 8 µg/mL)
MIC [28]: 7.33 µM (≈ 16 µg/mL)
MIC [29]: 14.7 µM (≈ 32 µg/mL)
MIC [30]: 7.33 µM (≈ 16 µg/mL)
MIC [31]: 7.33 µM (≈ 16 µg/mL)
MIC [32]: 3.67 µM (≈ 8 µg/mL)
MIC [33]: 8 µM (≈ 17.5 µg/mL)
MIC [34]: 4 µM (≈ 8.73 µg/mL)
MIC (Escherichia coli 850): 7.33 µM (≈ 16 µg/mL)
MIC (Escherichia coli K-12): 10 µM (≈ 21.8 µg/mL)
MIC (Bacillus subtilis 168): 10 µM (≈ 21.8 µg/mL)
MIC [11]: 7.33 µM (≈ 16 µg/mL)
MIC [14]: 7.33 µM (≈ 16 µg/mL)
SMILES: CC[C@H](C)[C@H](NC(=O)[C@H](CCCCN)NC(=O)[C@H](CCCCN)NC(=O)[C@H](C)NC(=O)[C@H](CC(C)C)NC(=O)[C@H](C)NC(=O)[C@H](C)NC(=O)[C@H](CC(C)C)NC(=O)[C@H](C)NC(=O)[C@H](CCCCN)NC(=O)[C@H](CC(C)C)NC(=O)[C@H](CC(N)=O)NC(=O)[C@@H](NC(=O)[C@H](CCCCN)NC(=O)CNC(=O)[C@H](CC(C)C)NC(=O)[C@H](CC(C)C)NC(=O)[C@H](Cc1ccc(O)cc1)NC(=O)CNC(=O)[C@H](C)N)[C@@H](C)CC)C(=O)N[C@@H](CC(C)C)C(=O)O [AGYLLGKINLKALAALAKKIL]
